Data taken from PMC6017342, “Discovery of Oxime Ethers as Hepatitis B Virus (HBV) Inhibitors by Docking, Screening and In Vitro Investigation” (Molecules : A Journal of Synthetic Chemistry and Natural …, 2018).
Several values for one entry are separate records, joined by “and”; a condition that tells them apart may be missing. Equal values may be shown once. Read-outs that look alike come from different tables or passages of the source.

What was measured:
HepG2.2.15 cells = test: Cytotoxicity on HepG2.2.15 cells (MTT assay, 9 days); assay type: cell-based, human; details: HepG 2.2.15 cell
Procedure: (§1) HepG2.2.15 (clonal cells derived from human hepatoma cell line G2) cells were provided by the Chinese Academy of Medical Sciences (P.R. China) and maintained in minimal essential medium (MEM) supplemented with 10% fetal bovine serum and 380 μg/mL of G418, 50 ug/mL of kanamycin, and 0.03% L-glutamine at 37 °C in a 5% CO2 atmosphere with 100% humidity.
(§2) HepG2.2.15 cells were seeded at a density of 1 × 10^5 cells/ml ([…]) in 96-well plates and maintained at 37 °C for 24 h prior to extract addition, followed by treatment with various concentrations of drugs. Lamivudine (3TC) was served as the positive control. Cells were treated with drug-containing fresh medium every 3 d for up to 9 d in a time-dependent experiment. Medium was taken at the 9th day of the treatment and stored at −20 °C until analysis. The IC50 and selected index (SI) of each compound were calculated, respectively.
Logarithmically growing cells were seeded in 96-well culture plates at a density of 1 × 10^5 cells/mL ([…]). They were cultured for 24 h and then treated with various concentrations of drugs. Optical density (OD) values were read at 450 nm after 9 days and the percentage of cell death was calculated; the cells were treated with drug-containing fresh medium every 3 d for up to 9 d. After drug treatment, the cytotoxicity was measured using the MTT assay.

[1] = system: secretion of HBsAg in HepG2.2.15 cells; test: microbe, parasite or virus in culture; assay type: cell-based, Hepatitis B virus; details: for HBsAg IC50 / IC50: - = inhibition ratio less than 50% in the test concentration range
Excerpt: (§3) The anti-HBV activities of the compounds were expressed as the concentration of compound that achieved 50% inhibition (IC50) to the secretion of HBsAg and HBeAg. […] The cytotoxicity of compounds was expressed as the concentration of compound required to kill 50% (TC50) of the HepG2.2.15 cells.
as §1
as §2, with “Lamivudine (3TC) was served as the positive control.” left out
(§4) The levels of HBV surface antigen (HBsAg) and HBV e antigen (HBeAg) in the supernatant of the HepG2.2.15 cell were simultaneously detected using enzyme-linked immunosorbent assay (ELISA) kits (Rongsheng Biotechnology Co. Ltd., Shanghai, China) according to the manufacturer’s instructions.The synthesized derivatives were expressed as the concentration of compound that achieved 50% inhibition (IC50) to the secretion of HBsAg and HBeAg. The selectivity index (SI) was determined as the ratio of CC50 to IC50, which is a major pharmaceutical parameter of estimates possible for future clinical application.

[2] = system: secretion of HBeAg in HepG2.2.15 cells; test: Inhibition of HBeAg secretion in HepG2.2.15 cells (ELISA); assay type: cell-based, Hepatitis B virus; details: 9 days
Excerpt: as §3, §1
as §2, with “Lamivudine (3TC) was served as the positive control.” left out
as §4

[3] = HepG2.2.15 cells, 9 days, ELISA
[4] = Hepatitis B virus, HepG2.2.15, 216 h, read-out: HBsAg IC50, HepG2.2.15 cells, 9 days, ELISA
[5] = Hepatitis B virus, HepG2.2.15, 216 h, ELISA, - = inhibition ratio less than 50% in the test concentration range
[6] = ELISA, - = inhibition ratio less than 50% in the test concentration range
[7] = HepG2.2.15 cells, 9 days, ELISA, read-out: HBsAg IC50

Molecule | TC50 (50% cytotoxicity concentration) (HepG2.2.15 cells) | HBsAg IC50 [1, 3] | IC50 [1, 4] | IC50 [2, 5] | HBsAg SI (selectivity index = TC50/IC50) ([1]; HepG2.2.15 cells, 9 days) | HBeAg SI (selectivity index = TC50/IC50) [2] | HBeAg IC50 [2, 6] | melting point | IC50 [1, 7] | IC50 [2, 6]
CO/N=C(\CCC(=O)OCc1ccco1)c1ccc(Cl)cc1 [Compound 4c-1, Furan-2-ylmethyl (E)-4-(4-chlorophenyl)-4-[(methoxy)imino]butanoate] | >1500 µM | non | > 293 µM | > 359 µM | – | – | – | – | – | –
CO/N=C(\CCC(=O)Nc1ccccc1)c1ccc(Cl)cc1 [Compound 5c-1, (E)-4-(4-Chlorophenyl)-4-[(methoxy)imino]-N-phenylbutanamide] | 1138.45 µM and >1500 µM | – | – | 246 µM | 28.51 | 4.63 | non | – | – | –
CCOC(=O)CC/C(=N\OC)c1ccc(OC)cc1 [Compound 3b-1, Ethyl (E)-4-(4-methoxyphenyl)-4-[(methoxy)imino]butanoate] | 1383.74 µM | inhibitory activity could be neglected | > 293 µM | > 359 µM | – | – | – | – | – | –
O=C(CC/C(=N\OCc1ccccc1)c1ccc(Cl)cc1)Nc1ccccc1 [Compound 5c-2, (E)-4-(4-Chlorophenyl)-4-[(benzyloxy)imino]-N-phenylbutanamide] | – | – | – | – | – | – | – | 116 to 117.9 °C | – | –
CO/N=C(\CCC(=O)Nc1ccccc1)c1ccc(OC)cc1 [Compound 5b-1, (E)-4-(4-Methoxyphenyl)-4-[(methoxy)imino]-N-phenylbutanamide] | 473.25 µM | – | 208 µM | > 359 µM | 2.28 | – | – | – | – | –
CCOC(=O)CC/C(=N\OC)C(=O)c1ccc(C)cc1 [Compound 3a-1, Ethyl (E)-4-(4-methylbenzoyl)-4-[(methoxy)imino]butanoate] | >1500 µM | – | 293 µM | > 359 µM | >5.12 | – | – | – | – | –
COc1ccc(/C(CCC(=O)OCc2ccco2)=N/OCc2ccccc2)cc1 [Compound 4b-2, Furan-2-ylmethyl (E)-4-(4-methoxyphenyl)-4-[(benzyloxy)imino]butanoate] | 1153.49 µM | – | 234 µM | > 359 µM | 4.94 | – | – | – | – | –
(E)-4-(4-Methylbenzoyl)-4-[(methoxy)imino]-N-phenylbutanamide [Compound 5a-1] | >1500 µM | – | – | – | >20.02 | >5.48 | – | – | 74.9 µM | 274 µM
Furan-2-ylmethyl (E)-4-(4-chlorophenyl)-4-[(benzyloxy)imino]butanoate [Compound 4c-2] | >1500 µM | – | – | – | – | – | – | – | > 293 µM | > 359 µM
Ethyl (E)-4-(4-methylbenzoyl)-4-[(benzyloxy)imino]butanoate [Compound 3a-2] | >1500 µM | non | – | – | – | – | – | – | > 293 µM | > 359 µM
CO/N=C(\CCC(=O)OCc1ccco1)c1ccc(OC)cc1 [Compound 4b-1, Furan-2-ylmethyl (E)-4-(4-methoxyphenyl)-4-[(methoxy)imino]butanoate] | 347.55 µM | – | 128 µM | > 359 µM | 2.72 | – | – | – | – | –
Nc1ccn([C@@H]2CS[C@H](CO)O2)c(=O)n1 [Compound 3TC, Lamivudine, reference compound] | 517.40 µM | – | 291 µM | – | – | – | – | – | – | –
(E)-4-(4-Methoxyphenyl)-4-[(benzyloxy)imino]-N-phenylbutanamide [Compound 5b-2] | >1500 µM | – | – | – | >14.82 | >7.83 | – | – | 101 µM | 192 µM
Furan-2-ylmethyl (E)-4-(4-methylbenzoyl)-4-[(benzyloxy)imino]butanoate [Compound 4a-2] | >1500 µM | non | – | – | – | – | – | – | > 293 µM | > 359 µM
Ethyl (E)-4-(4-methoxyphenyl)-4-[(benzyloxy)imino]butanoate [Compound 3b-2] | 429.88 µM | – | – | – | 4.95 | – | – | – | 86.9 µM | > 359 µM
Ethyl (E)-4-(4-chlorophenyl)-4-[(benzyloxy)imino]butanoate [Compound 3c-2] | 127.10 µM | – | – | – | 1.34 | 1.34 | – | – | 94.7 µM | 93.9 µM
CCOC(=O)CC/C(=N\OC)c1ccc(Cl)cc1 [Compound 3c-1, Ethyl (E)-4-(4-chlorophenyl)-4-[(methoxy)imino]butanoate] | 450.67 µM | – | 225 µM | > 359 µM | 2.00 | – | – | – | – | –
